Reference: patent US12116358B2, “Substituted indoles and methods of use thereof” (EPIZYME, INC., priority 2018, dated 2024)
Read-outs that look alike come from different tables or passages of the source.

Tests used:
SETD2(1434-1711) = molecular target: T1, SETD2(1434-1711) (Homo sapiens, UniProt Q9BYW2); test: SETD2 (1434-1711) assay; format: biochemical; settings: read-out: SETD2 (1434-1711)
T1 construct: SETD2 (1434-1711) Assay; catalogue N/A
T1 sequence (Q9BYW2 1434-1711): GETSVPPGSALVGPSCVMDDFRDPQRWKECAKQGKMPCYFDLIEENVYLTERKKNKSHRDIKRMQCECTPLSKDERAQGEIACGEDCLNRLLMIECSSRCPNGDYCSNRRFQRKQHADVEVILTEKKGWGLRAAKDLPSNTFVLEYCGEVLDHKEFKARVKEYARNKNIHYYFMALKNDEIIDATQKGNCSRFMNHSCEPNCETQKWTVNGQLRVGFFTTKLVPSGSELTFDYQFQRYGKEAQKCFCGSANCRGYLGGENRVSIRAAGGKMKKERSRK

H3K36me3 in A549 cells = test: In-Cell Western (ICW) assay of SETD2 inhibitors (A549 assay); format: cell-based, human; settings: A549 cells, read-out: SETD2 A549
How it was run: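 H3K36me3 In-Cell Western: cells exposed to compound for 3 days at 4,000 cells/well, 37° C. DRAQ5 (1:1000) marked cell number, with 700/800-channel Licor read-out.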

SMILES | IC50 (SETD2(1434-1711)) [nM] | IC50 (H3K36me3 in A549 cells; Homo sapiens) [nM] | IC50 (H3K36me3 in A549 cells) [nM]
Cc1ccc(F)c2cc(C(=O)Nc3cccc(-n4cnnc4)c3)[nH]c12 [compound 281] | 200 | 900 | –
Cc1ccc(F)c2cc(C(=O)Nc3cccc(-c4cn5ccccc5n4)c3)[nH]c12 [compound 286] | 100 | 1000 | –
Cc1ccc(F)c2cc(C(=O)Nc3cccc(N4CCOC5(CC5)C4)c3)[nH]c12 [compound 287] | 200 | 1000 | –
CNC(=O)CCCc1cccc(NC(=O)c2cc3c(F)ccc(C)c3[nH]2)c1 [compound 288] | 300 | – | 1000
Cc1ccc(F)c2cc(C(=O)Nc3cccc(-c4cnn5ccccc45)c3)[nH]c12 [compound 290] | 400 | 1100 | –
Cc1ccc(F)c2cc(C(=O)Nc3cccc(N4C5CCC4COC5)c3)[nH]c12 [compound 291] | 300 | 1100 | –
CC(=O)N1CC2CC1CN2c1cccc(NC(=O)c2cc3c(F)ccc(C)c3[nH]2)c1 (stereo not drawn) [compound 292] | 700 | – | 1100
CNC(=O)CCc1cccc(NC(=O)c2cc3c(F)ccc(C)c3[nH]2)c1 [compound 293] | 400 | 1100 | –
CC(=O)N1CCN(c2nccc(NC(=O)c3cc4c(F)ccc(C)c4[nH]3)n2)CC1 [compound 295] | 300 | 1100 | –
Cc1ccc(F)c2cc(C(=O)Nc3cccc(N4CCCCC4)c3)[nH]c12 [compound 297] | 100 | 1100 | –
Cc1ccc(F)c2cc(C(=O)Nc3cccc(N4CC[C@@H](N(C)C)[C@@H](F)C4)c3)[nH]c12 [compound 301] | 100 | 1200 | –
Cc1ccc(F)c2cc(C(=O)Nc3cccc(N4CC[C@@H](N(C)C)C[C@@H]4C)c3)[nH]c12 [compound 303] | 60 | 1200 | –
Cc1ccc(F)c2cc(C(=O)Nc3cccc(-c4ncn[nH]4)c3)[nH]c12 [compound 304] | 300 | – | 1200
CC(=O)N(C)C1CCCN(C2COCC(NC(=O)c3cc4c(F)ccc(C)c4[nH]3)C2)C1 (stereo not drawn) [compound 305] | 500 | 1200 | –
Cc1ccc(F)c2cc(C(=O)Nc3cccc(C4COCCN4)c3)[nH]c12 (stereo not drawn) [compound 307] | 200 | 1200 | –

Further compounds by falling IC50 (SETD2(1434-1711)), results first:

IC50 (SETD2(1434-1711)) [nM] | IC50 (H3K36me3 in A549 cells; Homo sapiens) [nM] | IC50 (H3K36me3 in A549 cells) [nM] | SMILES
400 | 1100 | – | Cc1ccc(F)c2cc(C(=O)Nc3cccc(N4CC(C)OCC4C)c3)[nH]c12 (stereo not drawn) [compound 289]
400 | 1200 | – | Cc1ccc(F)c2cc(C(=O)Nc3cccc(N4CCOCC4C4CC4)c3)[nH]c12 (stereo not drawn) [compound 306]
300 | 1100 | – | CC(=O)N1[C@@H](C)CN(c2cccc(NC(=O)c3cc4c(F)ccc(C)c4[nH]3)c2)C[C@@H]1C [compound 298]
200 | 1000 | – | Cc1ccc(F)c2cc(C(=O)Nc3cccc(N4CC5CC4CO5)c3)[nH]c12 (stereo not drawn) [compound 284]
200 | 1100 | – | Cc1ccc(F)c2cc(C(=O)Nc3cccc(-c4ncn5ccccc45)c3)[nH]c12 [compound 299]
200 | 1200 | – | Cc1ccc(F)c2cc(C(=O)Nc3cccc(CC(N)=O)c3)[nH]c12 [compound 300]
100 | 1100 | – | Cc1ccc(F)c2cc(C(=O)Nc3cccc(-c4ncno4)c3)[nH]c12 [compound 296]
40 | 1000 | – | Cc1ccc(F)c2cc(C(=O)Nc3cccc(C4CCC(N(C)C)C4)c3)[nH]c12 (stereo not drawn) [compound 282]
40 | 1000 | – | Cc1ccc(F)c2cc(C(=O)Nc3cccc(C4CCNC4)c3)[nH]c12 (stereo not drawn) [compound 283]
40 | 1000 | – | Cc1ccc(F)c2cc(C(=O)Nc3cccc(-c4ccccn4)c3)[nH]c12 [compound 285]
30 | 1100 | – | Cc1ccc(F)c2cc(C(=O)Nc3cccc(C4CCC5C(CCN5C)C4)c3)[nH]c12 (stereo not drawn) [compound 294]
30 | 1200 | – | Cc1ccc(F)c2cc(C(=O)Nc3cccc([C@@H]4CC[C@H](N(C)C)C4)c3)[nH]c12 [compound 302]
